Patent US11970497B2, “Tricyclic AKR1C3 dependent KARS inhibitors” (Novartis AG, priority 2019, dated 2024)

Columns and labels:
[1] = tested on: H460 (NRF2 pathway mutant cell line with high AKR1C3 expression); experiment: In vitro cell proliferation assay (CellTiter-Glo), H460; assay type: cell-based; conditions: Homo sapiens, NCI-H460, 72 h; H460 cells, 3 days, CellTiter-Glo, top concentration 10 μM; read-out: H460 Qualified absolute AC50
Text: (§1) Cellular Proliferation Assay to Assess Compounds Activity in H460 (NRF2 Pathway Mutant Cell Line with High AKR1C3 Expression) and Hara (NRF2 Pathway Wild Type Cell Line with Low AKR1C3 Expression).
(§2) The cell lines A549 and H460 are NRF2 pathway mutant and specifically contain genetic alterations in KEAP1 (A549: G333C, H460: D236H) (Singh A. et al., 2006 PLoS Medicine 3(10) e420). In these cell lines the NRF2 pathway is constitutively active and these cells express high levels of NRF2 protein and NRF2 pathway target gene AKR1C3. […] They have low AKR1C3 expression.
(§3) In Vitro Cell Proliferation Assay
(§4) Day 1, for H460 800 cells/well or 40 μL of 2×10^4 cells/mL and for Hara 2000 cells/well or 40 μL of 5×10^4 cells/mL medium (RPMI-1640 supplemented with 10% fetal bovine serum and 1% penicillin/streptomycin) were seeded into 384-well tissue culture plates. Day 2, compounds were serially diluted 1:5 to generate 8 point dose response curves and added to cells for a final top concentration of 10 μM. DMSO (1%) control and MG132 (30 μM) controls are added in columns 23 and 24 respectively on each plate for positive and negative control. After incubation for 3 days at 37° C./5% CO2, 30 μl of CellTiter-Glo reagent (Promega) was added and the plates were incubated for 10 min on plate shaker. The amount of luminescence was determined using a Perkin Elmer Envision plate reader. CellTiter-Glo luminescence values of cells treated with DMSO and MG132 controls were used to normalize the data and calculate percentage activity and AC50s of compounds using the Helios Software suite.

[2] = tested on: Hara (NRF2 pathway wild type cell line with low AKR1C3 expression); experiment: In vitro cell proliferation assay (CellTiter-Glo), Hara; assay type: cell-based; conditions: 72 h; Hara cells, 3 days, CellTiter-Glo, top concentration 10 μM; read-out: HARA Qualified absolute AC50
Text: as §1, §2, §3, §4

CC(C)S(=O)(=O)Nc1cc(CNC(=O)N2CCC3(CC2)CC(=O)c2cc(F)ccc2N3)ccc1F [Example 23, 6′-fluoro-N-(4-fluoro-3-((1-methylethyl)sulfonamido)benzyl)-4′-oxo-3′,4′-dihydro-1′H-spiro[piperidine-4,2′-quinoline]-1-carboxamide] showed an AC50 [1] of 6900 nM and an AC50 [2] of over 10000 nM.

In the case of NC(=O)c1cc(CNC(=O)N2CCC3(CC2)CC(=O)c2cc(F)ccc2N3)ccc1F [Example 24, N-(3-carbamoyl-4-fluorobenzyl)-6′-fluoro-4′-oxo-3′,4′-dihydro-1′H-spiro[piperidine-4,2′-quinoline]-1-carboxamide], the AC50 [1] was 46 nM and the AC50 [2] was 5940 nM.

In the case of CCN1c2ccc(F)cc2C(=O)CC12CCN(C(=O)NCc1ccc(F)c(NCCO)c1)CC2 [Example 25, 1′-ethyl-6′-fluoro-N-(4-fluoro-3-((2-hydroxyethyl)amino)benzyl)-4′-oxo-3′,4′-dihydro-1′H-spiro[piperidine-4,2′-quinoline]-1-carboxamide], the AC50 [1] was 47 nM and the AC50 [2] was 1660 nM.

Molecule CCN1c2ccc(F)cc2C(=O)CC12CCN(C(=O)NCc1ccc(F)c(N)c1F)CC2 [Example 26, N-(3-amino-2,4-difluorobenzyl)-1′-ethyl-6′-fluoro-4′-oxo-3′,4′-dihydro-1′H-spiro[piperidine-4,2′-quinoline]-1-carboxamide] has an AC50 [1] of 47 nM and an AC50 [2] of over 10000 nM.

Work on CN1c2ccc(F)cc2C(=O)CC12CCN(C(=O)NCc1ccc(F)c(N)c1)CC2 [Example 27, N-(3-amino-4-fluorobenzyl)-6′-fluoro-1′-methyl-4′-oxo-3′,4′-dihydro-1′H-spiro[piperidine-4,2′-quinoline]-1-carboxamide] yielded an AC50 [1] of 48 nM and an AC50 [2] of over 10000 nM.

CN1c2ccc(F)cc2C(=O)CC12CCN(C(=O)NCc1ccc(F)c(NCCOP(=O)(O)O)c1)CC2 [Example 28] was tested, and the AC50 [1] was 52 nM and the AC50 [2] was over 10000 nM.

CCN1c2ccc(F)cc2C(=O)CC12CCN(C(=O)NCc1ccc(F)c(N)c1)CC2 [Example 29, N-(3-amino-4-fluorobenzyl)-1′-ethyl-6′-fluoro-4′-oxo-3′,4′-dihydro-1′H-spiro[piperidine-4,2′-quinoline]-1-carboxamide] gave an AC50 [1] of 54 nM and an AC50 [2] of over 10000 nM.

With NS(=O)(=O)c1cc(CNC(=O)N2CCC3(CC2)CC(=O)c2cc(F)ccc2N3)ccc1F [Example 30, 6′-fluoro-N-(4-fluoro-3-sulfamoylbenzyl)-4′-oxo-3′,4′-dihydro-1′H-spiro[piperidine-4,2′-quinoline]-1-carboxamide] the AC50 [1] was 61 nM and the AC50 [2] was over 10000 nM.

With O=C1CC2(CCN(C(=O)NCc3ccccc3)CC2)Nc2ccc(F)cc21 [Example 33, N-benzyl-6′-fluoro-4′-oxo-3′,4′-dihydro-1′H-spiro[piperidine-4,2′-quinoline]-1-carboxamide] the AC50 [1] was 75 nM and the AC50 [2] was 1190 nM.

O=C1CC2(CCN(C(=O)NCc3cccc(-c4cnco4)c3)CC2)Nc2c(F)cc(F)cc21 [Example 35, 6′,8′-difluoro-N-(3-(oxazol-5-yl)benzyl)-4′-oxo-3′,4′-dihydro-1′H-spiro[piperidine-4,2′-quinoline]-1-carboxamide] was tested, and the AC50 [1] was 77 nM and the AC50 [2] was 2720 nM.

NC(=O)c1coc(CNC(=O)N2CCC3(CC2)CC(=O)c2cc(F)cc(F)c2N3)c1 [Example 38, N-((4-carbamoylfuran-2-yl)methyl)-6′,8′-difluoro-4′-oxo-3′,4′-dihydro-1′H-spiro[piperidine-4,2′-quinoline]-1-carboxamide] gave an AC50 [1] of 82 nM and an AC50 [2] of over 10000 nM.

O=C1CC2(CCN(C(=O)NCc3ccc(O)cc3)CC2)Nc2ccc(F)cc21 [Example 39, 6′-fluoro-N-(4-hydroxybenzyl)-4′-oxo-3′,4′-dihydro-1′H-spiro[piperidine-4,2′-quinoline]-1-carboxamide] showed an AC50 [1] of 82 nM and an AC50 [2] of over 10000 nM.

Molecule CN1c2ccc(F)cc2C(=O)CC12CCN(C(=O)NCc1ccc(F)c(C(N)=O)c1)CC2 [Example 41, N-(3-carbamoyl-4-fluorobenzyl)-6′-fluoro-1′-methyl-4′-oxo-3′,4′-dihydro-1′H-spiro[piperidine-4,2′-quinoline]-1-carboxamide] has an AC50 [1] of 93 nM and an AC50 [2] of over 10000 nM.

Work on CN1c2ccc(F)cc2C(=O)CC12CCN(C(=O)NCc1ccc(F)c(N)c1F)CC2 [Example 42, N-(3-amino-2,4-difluorobenzyl)-6′-fluoro-1′-methyl-4′-oxo-3′,4′-dihydro-1′H-spiro[piperidine-4,2′-quinoline]-1-carboxamide] yielded an AC50 [1] of 94 nM and an AC50 [2] of over 10000 nM.

O=C1CC2(CCN(C(=O)NCc3ccc(F)cc3O)CC2)Nc2ccc(F)cc21 [Example 43, 6′-fluoro-N-(4-fluoro-2-hydroxybenzyl)-4′-oxo-3′,4′-dihydro-1′H-spiro[piperidine-4,2′-quinoline]-1-carboxamide] was tested, and the AC50 [1] was 99 nM and the AC50 [2] was over 10000 nM.

CN1c2ccc(F)cc2C(=O)CC12CCN(C(=O)NCc1ccc(F)c(NC[C@H](O)CO)c1)CC2 [Example 45, (S)—N-(3-((2,3-dihydroxypropyl)amino)-4-fluorobenzyl)-6′-fluoro-1′-methyl-4′-oxo-3′,4′-dihydro-1′H-spiro[piperidine-4,2′-quinoline]-1-carboxamide] was tested, and the AC50 [1] was 100 nM and the AC50 [2] was over 10000 nM.

With O=C1CC2(CCN(C(=O)NCc3ccoc3)CC2)Nc2c(F)cc(F)cc21 [Example 46, 6′,8′-difluoro-N-(furan-3-ylmethyl)-4′-oxo-3′,4′-dihydro-1′H-spiro[piperidine-4,2′-quinoline]-1-carboxamide] the AC50 [1] was 105 nM and the AC50 [2] was 2940 nM.

In the case of O=C1CC2(CCN(C(=O)NCc3cc[nH]n3)CC2)Nc2ccc(F)cc21 [Example 47, N-((1H-pyrazol-3-yl)methyl)-6′-fluoro-4′-oxo-3′,4′-dihydro-1′H-spiro[piperidine-4,2′-quinoline]-1-carboxamide], the AC50 [1] was 106 nM and the AC50 [2] was over 10000 nM.

For O=C(NCCO)c1cc(CNC(=O)N2CCC3(CC2)CC(=O)c2cc(F)ccc2N3)ccc1F [Example 48, 6′-fluoro-N-(4-fluoro-3-((2-hydroxyethyl)carbamoyl)benzyl)-4′-oxo-3′,4′-dihydro-1′H-spiro[piperidine-4,2′-quinoline]-1-carboxamide], the AC50 [1] was 108 nM and the AC50 [2] was 7960 nM.

Molecule Nc1cc(F)c(CNC(=O)N2CCC3(CC2)CC(=O)c2cc(F)ccc2N3)cc1F [Example 49, N-(4-amino-2,5-difluorobenzyl)-6′-fluoro-4′-oxo-3′,4′-dihydro-1′H-spiro[piperidine-4,2′-quinoline]-1-carboxamide] has an AC50 [1] of 113 nM and an AC50 [2] of over 10000 nM.

With CCN1c2ccc(F)cc2C(=O)CC12CCN(C(=O)NCc1cc(N)c(F)cc1F)CC2 [Example 50, N-(5-amino-2,4-difluorobenzyl)-1′-ethyl-6′-fluoro-4′-oxo-3′,4′-dihydro-1′H-spiro[piperidine-4,2′-quinoline]-1-carboxamide] the AC50 [1] was 122 nM and the AC50 [2] was over 10000 nM.

O=C1CC2(CCN(C(=O)NCc3ccc(F)cc3OCC(F)(F)F)CC2)Nc2ccc(F)cc21 [Example 51, 6′-fluoro-N-(4-fluoro-2-(2,2,2-trifluoroethoxy)benzyl)-4′-oxo-3′,4′-dihydro-1′H-spiro[piperidine-4,2′-quinoline]-1-carboxamide] gave an AC50 [1] of 128 nM and an AC50 [2] of 4750 nM.

Molecule CCNc1cc(F)ccc1CNC(=O)N1CCC2(CC1)CC(=O)c1cc(F)ccc1N2C [Example 52, N-(2-(ethylamino)-4-fluorobenzyl)-6′-fluoro-1′-methyl-4′-oxo-3′,4′-dihydro-1′H-spiro[piperidine-4,2′-quinoline]-1-carboxamide] has an AC50 [1] of 139 nM and an AC50 [2] of over 10000 nM.
